# Measurements as given in patent US20080248568A1, “Directed Neural Differentiation” (The University Court of the University of Edinburgh, priority 2005, published 2008).
# Experiments:
# ES cells = test: Toxic effects of inhibitors in ES cell monolayer differentiation cultures; format: cell-based, mouse; settings: 4 μM
# Description: (§1) This is as described in detail in Ying et al., 2003b. Briefly, ES cells were washed to remove all traces of serum and then plated on gelatin-coated tissue culture plastic at a density of 1>10^4 cells/cm^2 in N2B27 serum-free medium. N2B27 consists of a 1:1 ratio of DM/F12 and Neurobasal media supplemental with 0.5% N2 (made in house as described in (Ying et al., 2003b)), 0.5% B27 (Gibco) and 2-mercaptoethanol. Media was changed every second day.
# (§2) In some experiments, the culture medium was supplemented with 100 units/ml LIF and with 10% FCS. The MAPK inhibitor PD184352 (gift of P. Cohen, Univ Dundee) was used at a concentration of 4 μM. The gamma secretase inhibitor (Calbiochem cat. 565771) was used at a concentration of 4 μM.
# NotchIC cells = test: Monolayer differentiation of NotchIC ES cells, sox1-GFP by FACS; format: cell-based, mouse; settings: 4 μM inhibitor, sox1-GFP positive cells by FACS
# Description: Intact cultures were stained for Oct4 on day 5 to visualise undifferentiated ES cells.
# as §1, §2
compound,measurement,setting,value
O=C(NOCC1CC1)c1ccc(F)c(F)c1Nc1ccc(I)cc1Cl [PD184352],toxic effects over the time course of the experiments,ES cells,Neither of these inhibitors had any obvious toxic effects
same,induction of sox1 in NotchIC cells,NotchIC cells,able to block induction of sox1
Cc1c[nH]c(/C=C2\C(=O)Nc3ccccc32)c1CCC(=O)O [SU5402],induction of sox1 in NotchIC cells,NotchIC cells,able to block induction of sox1
